The results in this text go back to US20240400555A1 (Initial Therapeutics, Inc., priority 2023, published 2024).

As a reminder, the IC50 is the midpoint of a concentration-inhibition curve.

The test system of one experiment is MV-4-11 cells. Description: Cell Viability Assay in MV-4-11 Cells. It is filed as cell-based. Conditions: Homo sapiens, MV4-11, 72 h. The essentials: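 Luminescent ATP read-out (CellTiter-Glo) after 72 h compound treatment of MV-4-11 leukaemia cells (7,000 per well, IMDM plus 10% FBS). Values expressed relative to DMSO control and derived by four-parameter non-linear regression.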
Compound `Cc1cccc2ccnc(N(C(=O)c3cccc(C#CCCC(=O)Nc4ccncc4)c3)[C@@H]3CCCNC3)c12` [Example 516, (R)—N-(8-methylisoquinolin-1-yl)-3-(5-oxo-5-(pyridin-4-ylamino)pent-1-yn-1-yl)-N-(piperidin-3-yl)benzamide] gave an IC50 of 750 nM.

In the case of `Cn1cc(-c2ccc(C(=O)N(c3nccc4sc(-c5cccc(C(=O)Nc6ccccc6)c5)cc34)[C@@H]3CCCNC3)c(F)c2)nn1` [Example 540, 2-fluoro-4-(1-methyltriazol-4-yl)-N-[2-[3-(phenylcarbamoyl)phenyl]thieno[3,2-c]pyridin-4-yl]-N-[(3R)-3-piperidyl]benzamide], inhibition was half-maximal at 470 nM (IC50).

The experiment is the same for the next values; noted with them: Homo sapiens, MV4-11, 72 h, MV-4-11 cells, 72 h, Cell-Titer Glo; read-out: IC50.
As for `Cc1cccc2ccnc(N(C(=O)c3cccc(C#CCCC(=O)NCc4ccncc4)c3)[C@@H]3CCCNC3)c12` [Example 517, (R)—N-(8-methylisoquinolin-1-yl)-3-(5-oxo-5-((pyridin-4-ylmethyl)amino)pent-1-yn-1-yl)-N-(piperidin-3-yl)benzamide], the IC50 was determined as 7300 nM.

On to `Cc1cccc2ccnc(N(C(=O)c3cccc(C#CCCC(=O)N4CCC(O)C4)c3)[C@@H]3CCCNC3)c12` (stereo partly drawn) [Example 518, 3-(5-(3-hydroxypyrrolidin-1-yl)-5-oxopent-1-yn-1-yl)-N-(8-methylisoquinolin-1-yl)-N—((R)-piperidin-3-yl)benzamide], for which the half-inhibitory concentration (IC50) is 940 nM.

As for `Cc1cccc2ccnc(N(C(=O)c3cccc(C#CCCC(=O)N4CCOCC4)c3)[C@@H]3CCCNC3)c12` [Example 519, (R)—N-(8-methylisoquinolin-1-yl)-3-(5-morpholino-5-oxopent-1-yn-1-yl)-N-(piperidin-3-yl)benzamide], the half-maximal inhibitory concentration (IC50) is 430 nM.

For the compound `Cc1cccc2ccnc(N(C(=O)c3cccc(C#CCCC(=O)NC(C)CO)c3)[C@@H]3CCCNC3)c12` (stereo partly drawn) [Example 520, 3-(5-((1-hydroxypropan-2-yl)amino)-5-oxopent-1-yn-1-yl)-N-(8-methylisoquinolin-1-yl)-N—((R)-piperidin-3-yl)benzamide], the IC50 was determined as 1700 nM.

Take `CNC(=O)c1ccc(-c2cc3c(N(C(=O)c4ccc(-c5cn(C)nn5)cc4F)[C@@H]4CCCNC4)nccc3s2)cc1` [Example 521, (R)-2-fluoro-4-(1-methyl-1H-1,2,3-triazol-4-yl)-N-(2-(4-(methylcarbamoyl)phenyl)thieno[3,2-c]pyridin-4-yl)-N-(piperidin-3-yl)benzamide]: the half-inhibitory concentration (IC50) is 760 nM.

For `CC(C)NC(=O)c1ccc(-c2cc3c(N(C(=O)c4ccc(-c5cn(C)nn5)cc4F)[C@@H]4CCCNC4)nccc3s2)cc1` [Example 522, 2-fluoro-N-[2-[4-(isopropylcarbamoyl)phenyl]thieno[3,2-c]pyridin-4-yl]-4-(1-methyltriazol-4-yl)-N-[(3R)-3-piperidyl]benzamide], the IC50 amounted to 770 nM.

On to `Cn1cc(-c2ccc(C(=O)N(c3nccc4sc(-c5ccc(C(=O)Nc6ccccc6)cc5)cc34)[C@@H]3CCCNC3)c(F)c2)nn1` [Example 523, 2-fluoro-4-(1-methyltriazol-4-yl)-N-[2-[4-(phenylcarbamoyl)phenyl]thieno[3,2-c]pyridin-4-yl]-N-[(3R)-3-piperidyl]benzamide], for which the half-inhibitory concentration (IC50) stood at 920 nM.

As to `Cn1cc(-c2ccc(C(=O)N(c3nccc4sc(-c5ccc(C(=O)NCCO)cc5)cc34)[C@@H]3CCCNC3)c(F)c2)nn1` [Example 524], the IC50 was > 10000 nM.

Take `CNC(=O)/C=C/c1cc2c(N(C(=O)c3ccc(-n4nnc5cccnc54)cc3F)[C@@H]3CCCNC3)nccc2s1` [Example 525, 2-fluoro-N-[2-[(E)-3-(methylamino)-3-oxo-prop-1-enyl]thieno[3,2-c]pyridin-4-yl]-N-[(3R)-3-piperidyl]-4-(triazolo[4,5-b]pyridin-3-yl)benzamide]: the half-inhibitory concentration (IC50) turned out to be 790 nM.

As for `CN(C)C(=O)/C=C/c1cc2c(N(C(=O)c3ccc(-n4nnc5cccnc54)cc3F)[C@@H]3CCCNC3)nccc2s1` [Example 526, N-[2-[(E)-3-(dimethylamino)-3-oxo-prop-1-enyl]thieno[3,2-c]pyridin-4-yl]-2-fluoro-N-[(3R)-3-piperidyl]-4-(triazolo[4,5-b]pyridin-3-yl)benzamide], the half-inhibitory concentration (IC50) amounted to 870 nM.

With `CNC(=O)c1nc(-c2cc3c(N(C(=O)c4ccc(-n5nnc6cccnc65)cc4F)[C@@H]4CCCNC4)nccc3s2)cs1` [Example 527, 4-[4-[[2-fluoro-4-(triazolo[4,5-b]pyridin-3-yl)benzoyl]-[(3R)-3-piperidyl]amino]thieno[3,2-c]pyridin-2-yl]-N-methyl-thiazole-2-carboxamide], the 50% inhibitory concentration (IC50) turned out to be 200 nM.

As to `CN(C)C(=O)c1ccc(-c2cc3c(N(C(=O)c4ccc(-c5cn(C)nn5)cc4F)[C@@H]4CCCNC4)nccc3s2)cc1` [Example 528, (R)—N-(2-(4-(dimethylcarbamoyl)phenyl)thieno[3,2-c]pyridin-4-yl)-2-fluoro-4-(1-methyl-1H-1,2,3-triazol-4-yl)-N-(piperidin-3-yl)benzamide], the IC50 came out at 870 nM.

On to `Cn1cc(-c2ccc(C(=O)N(c3nccc4sc(-c5ccc(-c6cc[nH]n6)cc5)cc34)[C@@H]3CCCNC3)c(F)c2)nn1` [Example 529, 2-fluoro-4-(1-methyltriazol-4-yl)-N-[(3R)-3-piperidyl]-N-[2-[4-(1H-pyrazol-3-yl)phenyl]thieno [3,2-c]pyridin-4-yl] benzamide], for which the 50% inhibitory concentration (IC50) was determined as 140 nM.

Regarding `O=C(c1ccc(-n2nnc3cccnc32)cc1F)N(c1nccc2cc(-c3nn[nH]c3CO)ccc12)[C@@H]1CCCNC1` [Example 530, (R)-4-(3H-[1,2,3]triazolo[4,5-b]pyridin-3-yl)-2-fluoro-N-(6-(5-(hydroxymethyl)-1H-1,2,3-triazol-4-yl)isoquinolin-1-yl)-N-(piperidin-3-yl)benzamide], the 50% inhibitory concentration (IC50) came out at 1600 nM.

On to `CNc1nccc(-c2cc3c(N(C(=O)c4ccc(-c5cn(C)nn5)cc4F)[C@@H]4CCCNC4)nccc3s2)n1` [Example 531, (R)-2-fluoro-4-(1-methyl-1H-1,2,3-triazol-4-yl)-N-(2-(2-(methylamino)pyrimidin-4-yl)thieno[3,2-c]pyridin-4-yl)-N-(piperidin-3-yl)benzamide], for which the concentration for half-maximal inhibition (IC50) was found to be 430 nM.

Take `C=CC(=O)Nc1cccc(-c2cc3c(N(C(=O)c4ccc(-c5cn(C)nn5)cc4F)[C@@H]4CCCNC4)nccc3s2)c1` [Example 532, 2-fluoro-4-(1-methyltriazol-4-yl)-N-[(3R)-3-piperidyl]-N-[2-[3-(prop-2-enoylamino)phenyl]thieno[3,2-c]pyridin-4-yl]benzamide]: the half-inhibitory concentration (IC50) was 1800 nM.

Consider `Cn1cc(-c2ccc(C(=O)N(c3nccc4sc(-c5ccc6c(c5)C(=O)NC6)cc34)[C@@H]3CCCNC3)c(F)c2)nn1` [Example 533, 2-fluoro-4-(1-methyltriazol-4-yl)-N-[2-(3-oxoisoindolin-5-yl)thieno[3,2-c]pyridin-4-yl]-N-[(3R)-3-piperidyl]benzamide], for which the IC50 amounted to 910 nM.

With `CNS(=O)(=O)c1ccc(-c2cc3c(N(C(=O)c4ccc(-c5cn(C)nn5)cc4F)[C@@H]4CCCNC4)nccc3s2)cc1` [Example 534, (R)-2-fluoro-4-(1-methyl-1H-1,2,3-triazol-4-yl)-N-(2-(4-(N-methylsulfamoyl)phenyl)thieno[3,2-c]pyridin-4-yl)-N-(piperidin-3-yl)benzamide], the concentration for half-maximal inhibition (IC50) was 200 nM.

As for `CNS(=O)(=O)c1cccc(-c2cc3c(N(C(=O)c4ccc(-c5cn(C)nn5)cc4F)[C@@H]4CCCNC4)nccc3s2)c1` [Example 535, 2-fluoro-N-[2-[3-(methylsulfamoyl)phenyl]thieno[3,2-c]pyridin-4-yl]-4-(1-methyltriazol-4-yl)-N-[(3R)-3-piperidyl]benzamide], the half-inhibitory concentration (IC50) is 1200 nM.

Take `Cn1cc(-c2ccc(C(=O)N(c3nccc4sc(-c5ccc(S(=O)(=O)NCCN)cc5)cc34)[C@@H]3CCCNC3)c(F)c2)nn1` [Example 536, N-[2-[4-(2-aminoethylsulfamoyl)phenyl]thieno[3,2-c]pyridin-4-yl]-2-fluoro-4-(1-methyltriazol-4-yl)-N-[(3R)-3-piperidyl] benzamide]: the IC50 is > 10000 nM.

Consider `CC(C)NS(=O)(=O)c1ccc(-c2cc3c(N(C(=O)c4ccc(-c5cn(C)nn5)cc4F)[C@@H]4CCCNC4)nccc3s2)cc1` [Example 537, 2-fluoro-N-[2-[4-(isopropylsulfamoyl)phenyl]thieno[3,2-c]pyridin-4-yl]-4-(1-methyltriazol-4-yl)-N-[(3R)-3-piperidyl]benzamide], for which the IC50 turned out to be 1600 nM.

Consider `Cn1cc(-c2ccc(C(=O)N(c3nccc4sc(-c5ccc6c(c5)CNC6=O)cc34)[C@@H]3CCCNC3)c(F)c2)nn1` [Example 538, 2-fluoro-4-(1-methyltriazol-4-yl)-N-[2-(1-oxoisoindolin-5-yl)thieno[3,2-c]pyridin-4-yl]-N-[(3R)-3-piperidyl]benzamide], for which the half-inhibitory concentration (IC50) was found to be 920 nM.

In the case of `CC(C)NC(=O)c1cccc(-c2cc3c(N(C(=O)c4ccc(-c5cn(C)nn5)cc4F)[C@@H]4CCCNC4)nccc3s2)c1` [Example 539, 2-fluoro-N-[2-[3-(isopropylcarbamoyl)phenyl]thieno[3,2-c]pyridin-4-yl]-4-(1-methyltriazol-4-yl)-N-[(3R)-3-piperidyl]benzamide], the IC50 was found to be 630 nM.

Consider `Cn1cc(-c2ccc(C(=O)N(c3nccc4sc(-c5cccc(C(=O)NCCO)c5)cc34)[C@@H]3CCCNC3)c(F)c2)nn1` [Example 542, 2-fluoro-N-[2-[3-(2-hydroxyethylcarbamoyl)phenyl]thieno[3,2-c]pyridin-4-yl]-4-(1-methyltriazol-4-yl)-N-[(3R)-3-piperidyl]benzamide], for which the concentration for half-maximal inhibition (IC50) came to 6300 nM.

Still in this experiment, the particulars now being: MV-4-11 cells, 72 h, Cell-Titer Glo; read-out: IC50.
With `CNC(=O)c1cccc(-c2cc3c(N(C(=O)c4ccc(-c5cn(C)nn5)cc4F)[C@@H]4CCCNC4)nccc3s2)c1` [Example 541, 2-fluoro-N-[2-[3-(methylcarbamoyl)phenyl]thieno[3,2-c]pyridin-4-yl]-4-(1-methyltriazol-4-yl)-N-[(3R)-3-piperidyl] benzamide], the IC50 stood at 640 nM.
